The source of these data is patent US10961246B2, “18F-labelled folates as PET radiotracers” (MERCK & CIE, priority 2008, dated 2021).

The target of series [1] is T1, folate receptor (Homo sapiens, UniProt P15328).
T1 construct: endogenous in cells; host or cells: KB tumor xenografts in male NMRI nu/nu mice
Description: Ex vivo biodistribution study in mice bearing KB tumor xenografts, control vs folic acid blockade. Also noted: species or system male NMRI nu/nu mice. Conditions: ~2 MBq radiotracer; blockade group 200 μg natural folic acid 10 min prior; sacrificed 105 min post injection; KB tumor. The protocol:
(§1) γ-[^18F]fluoro-folic acid was applied in ex vivo biodistribution studies using male NMRI nu/nu mice bearing KB tumor xenografts. ˜2 MBq of the radiotracer were injected into each animal. In a blockade group, 200 μg natural folic acid was injected 10 min prior to the radiotracer. The animals were sacrificed 105 min post injection.

Series [2] has as its system folate receptor. The series is described as above. Also noted: species or system male NMRI nu/nu mice. The protocol:
as §1

The target of series [3] is T1, folate receptor. The series is classed as in vivo, male NMRI nu/nu mice. The settings on record: blockade 200 μg natural folic acid 10 min prior; scans 75-105 min post injection. The protocol:
(§2) In vivo PET imaging using the γ-[^18F]fluoro-folic acid was performed in male NMRI nu/nu mice bearing KB tumor xenografts. Ca. 10 MBq of the radiotracer were injected into each animal. In the blockade group, 200 μg natural folic acid was injected 10 min prior to the radiotracer. The PET scans were acquired from 75 min to 105 min post injection.
(§3) This pattern is consistent with the physiological distribution of the folate receptor and points out the high specificity of γ-[^18F]fluoro-folic acid.
(§4) FIG. 3 show representative series of normalized horizontal slices of whole body PET scans using γ-[^18F]fluoro-folic acid under control and blockade conditions. Arrows with circles indicate the tumor site and arrows with squares indicate the kidneys.

The test system of series [4] is folate receptor. The series is classed as in vivo, male NMRI nu/nu mice. The settings on record: ca. 10 MBq; scans 75-105 min post injection. The protocol: as §2, §3, §4

T1 sequence (P15328 25-234 limits assumed): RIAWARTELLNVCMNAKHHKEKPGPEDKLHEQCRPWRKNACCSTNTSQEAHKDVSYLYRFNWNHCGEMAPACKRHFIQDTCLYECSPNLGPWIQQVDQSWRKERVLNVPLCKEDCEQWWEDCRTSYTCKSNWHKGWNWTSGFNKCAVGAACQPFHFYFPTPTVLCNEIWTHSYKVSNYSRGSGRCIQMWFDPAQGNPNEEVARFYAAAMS

On to `Nc1nc2ncc(CNc3ccc(C(=O)N[C@@H](CC([18F])C(=O)O)C(=O)O)cc3)nc2c(=O)[nH]1` (stereo partly shown) [γ-[^18F]fluoro-folic acid, γ-[^18F]fluorofolic acid], for which the “specific blockade of radiotracer uptake in folate receptor-positive KB tumors” value on folate receptor [1] was 90.0%. Moreover, the “uptake in folate receptor-positive tissues, such as tumor and kidney (FIG. 2)” value in the series on folate receptor [2] (control group vs blockade group) was “high specific uptake”. In the series on folate receptor [2] (~2 MBq radiotracer, blockade group 200 μg natural folic acid 10 min prior, sacrificed 105 min post injection, kidneys), the “specific blockade of radiotracer uptake in the kidneys” value worked out at 86.0%. Also, the “specificity of uptake in PET” value at folate receptor [3] was “highly specific and blocked by natural folic acid”. Also, in the series with folate receptor [4], the “uptake in liver cells (PET)” value is “radioactivity accumulation”, the “uptake in the kidney cortex (PET)” value is “high specific uptake” and the “uptake in the kidney medulla (PET)” value was “no uptake”.
